Patent US10857105B2, “Compounds and compositions for intracellular delivery of therapeutic agents” (ModernaTX, Inc., priority 2017, dated 2020)

Key:
[1] = system: mouse liver tissue; assay: Disappearance of parent lipid and primary metabolite from mouse liver after 0.25 mg/kg mRNA on days 1, 8 and 15; assay type: in vivo
Method: (§1) In vitro metabolite identification studies using compound 18 were also performed. […] The disappearance of parent compound 18 and the primary metabolite, compound 166, from mouse liver tissue was measured after dosing 0.25 mg/kg mRNA on days 1, 8, and 15.

[2] = system: human hepatocytes; assay: Metabolite profiling of Compound 18 incubated with human hepatocytes; assay type: in vitro ADME; design: key: +: Detected; ND: Not detected; conditions: Compound 18 (10 μM), human hepatocytes
Method: as §1
The results of metabolic profiling and characterization for compound 18 incubated with human hepatocytes or human plasma are summarized in Tables 41 and 42, respectively.

[3] = Metabolite identification of Compound 18 incubated with human plasma; assay type: in vitro ADME; design: key to Detection at 0 min / Detection at 30 min / Detection at 60 min / Detection at 90 min: +: Detected; ND: Not detected; conditions: Compound 18 (10 μM), human plasma
Method: Metabolite Identification: Compound 18 (10 μM) was incubated with human plasma (29.0 mg protein/incubation) in incubation mixtures (200 μL final incubation volume) that consisted of 50/50 v/v neat plasma (undiluted)/substrate solution in 50 mM phosphate buffer, pH 7.4). The plasma was obtained from male and female donors and contained K2EDTA anticoagulant. Reactions were started by addition of the substrate solution to human plasma and were stopped at four designated time points (0, 30, 60 and 90 min) by the addition of 600 μL of stop reagent (acetonitrile). Stopped incubation samples were centrifuged (e.g., 10,000×g for 10 min at 10° C.) and the supernatant fractions were analyzed by LC-MS/MS to characterize the metabolites formed from compound 18. Additional incubations were performed with the positive control procaine […] to establish competency of the test system. Samples were analyzed by LC-MS/MS.
as §1

clearance from mouse liver tissue [1]: rapid clearance | Detection at 60 min ([2]; 60 min): + | Detection at 120 min ([2]; 120 min): + | Detection at 240 min ([2]; 240 min): + | Detection at 30 min ([3]; 30 min): + | Detection at 60 min ([3]; 60 min): + | Detection at 90 min ([3]; 90 min): +
Compound: CCCCCCCCC(CCCCCCCC)OC(=O)CCCCCCCN(CCO)CCCCCCCC(=O)O [Compound 166, 8-((8-(Heptadecan-9-yloxy)-8-oxooctyl)(2-hydroxyethyl)amino)octanoic acid]
